Source: ChEMBL document CHEMBL1138029, “Identification of neutral 4-O-alkyl quinolone nonpeptide GnRH receptor antagonists” (Bioorg Med Chem Lett, 2004)

What was measured:
[1] = molecular target: T1, Gonadotropin-releasing hormone receptor (Homo sapiens, UniProt P30968); test: Binding affinity towards human gonadotropin releasing hormone receptor expressed in CHO cells was determined by using [125I]-buserelin as radioligand; assay type: cell-based
T1 sequence (P30968 whole entry): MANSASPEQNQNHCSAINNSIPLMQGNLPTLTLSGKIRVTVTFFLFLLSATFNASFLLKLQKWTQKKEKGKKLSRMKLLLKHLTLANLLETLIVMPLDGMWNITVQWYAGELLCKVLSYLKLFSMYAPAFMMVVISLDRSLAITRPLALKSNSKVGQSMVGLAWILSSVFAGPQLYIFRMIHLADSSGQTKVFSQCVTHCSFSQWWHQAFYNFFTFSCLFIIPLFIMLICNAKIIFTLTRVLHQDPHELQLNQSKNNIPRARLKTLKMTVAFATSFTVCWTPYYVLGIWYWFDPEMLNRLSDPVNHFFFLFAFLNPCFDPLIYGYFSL

[2] = molecular target: T1, Gonadotropin-releasing hormone receptor; test: Inhibition of GnRH-stimulated phosphatidyl inositol hydrolysis in CHO cells expressing GnRH receptor; assay type: functional, cell-based

Row | Structure (SMILES) | IC50 [1] [nM] | IC50 [2] [nM]
1 | Cc1cc(-c2c(O)nc3cc(Cl)c(C(=O)Nc4ccncn4)cc3c2OCC[C@@H]2CCC[C@H](C(F)(F)F)N2)cc(C)c1C | 2 | 18
2 | Cc1cc(-c2c(OCCC3CCCO3)c3cc(C(=O)Nc4ccncn4)c(Cl)cc3[nH]c2=O)cc(C)c1C (stereo not given) | 0.6 | 3.3
3 | Cc1cc(-c2c(O)nc3cc(Cl)c(C(=O)Nc4cnsn4)cc3c2OCCC2CCCC2)cc(C)c1C | 243 | 1150
4 | Cc1cc(-c2c(OCCC3CC4CCN3CC4)c3cc(C(=O)Nc4cnsn4)c(Cl)cc3[nH]c2=O)cc(C)c1C (stereo not given) | 0.6 | 5.8
5 | Cc1cc(-c2c(O)nc3cc(Cl)c(C(=O)Nc4ccncn4)cc3c2OCC[C@@H]2CCC[C@H](C(F)(F)F)N2C)cc(C)c1C | 2 | 18
6 | Cc1cc(-c2c(O)nc3cc(Cl)c(C(=O)Nc4cnsn4)cc3c2OCC[C@H]2CCC(=O)N2)cc(C)c1C | 0.3 | 0.7
7 | Cc1cc(-c2c(O)nc3cc(Cl)c(C(=O)Nc4cnsn4)cc3c2OCCC2OCCO2)cc(C)c1C | 0.6 | 67

Continued by falling IC50 [2], values first:

Row | IC50 [1] [nM] | IC50 [2] [nM] | Structure (SMILES)
8 | 0.9 | 49 | Cc1cc(-c2c(O)nc3cc(Cl)c(C(=O)Nc4cnsn4)cc3c2OCC[C@H]2CCO2)cc(C)c1C
9 | 0.7 | 32 | Cc1cc(-c2c(OCCC3COCCN3)c3cc(C(=O)Nc4cnsn4)c(Cl)cc3[nH]c2=O)cc(C)c1C (stereo not given)
10 | 1.4 | 11 | Cc1cc(-c2c(O)nc3cc(Cl)c(C(=O)Nc4cnsn4)cc3c2OCC[C@H]2CCC(=O)N2C)cc(C)c1C
11 | 0.8 | 2.2 | Cc1cc(-c2c(O)nc3cc(Cl)c(C(=O)Nc4ccncn4)cc3c2OCC[C@@H]2CCCN2)cc(C)c1C
12 | – | 2.2 | Cc1cc(-c2c(OCC[C@@H]3CCCCN3)c3cc(C(=O)Nc4ccncn4)c(Cl)cc3[nH]c2=O)cc(C)c1C
13 | 0.55 | 1.6 | Cc1cc(-c2c(OCC[C@@H]3CCCCN3)c3cc(C(=O)Nc4cnsn4)c(Cl)cc3[nH]c2=O)cc(C)c1C
14 | 0.1 | 1.3 | Cc1cc(-c2c(OCC[C@H]3CC(=O)N3)c3cc(C(=O)Nc4cnsn4)c(Cl)cc3[nH]c2=O)cc(C)c1C
15 | – | 0.9 | Cc1cc(-c2c(OCC[C@@H]3CCN3)c3cc(C(=O)Nc4ccncn4)c(Cl)cc3[nH]c2=O)cc(C)c1C
16 | 0.32 | 0.8 | Cc1cc(-c2c(OCC[C@@H]3CCN3)c3cc(C(=O)Nc4cnsn4)c(Cl)cc3[nH]c2=O)cc(C)c1C
